From ChEMBL document CHEMBL3608237, “Novel inhibitor against Malassezia globosa LIP1 (SMG1), a potential anti-dandruff target” (Bioorg Med Chem Lett, 2015)
Calls of active or inactive are those of the source. The calls are words filed in the database; no cut-off is given here.

Tests used:
[1] = target: T1, Secreted mono- and diacylglycerol lipase LIP1 (Malassezia globosa (strain ATCC MYA-4612 / CBS 7966)(Dandruff-associated fungus)) (UniProt A8PUY1); experiment: Competitive inhibition of Malassezia globosa CBS 7966 LIP1 using pNPA substrate by Lineweaver-Burk plot method
T1 sequence (whole entry): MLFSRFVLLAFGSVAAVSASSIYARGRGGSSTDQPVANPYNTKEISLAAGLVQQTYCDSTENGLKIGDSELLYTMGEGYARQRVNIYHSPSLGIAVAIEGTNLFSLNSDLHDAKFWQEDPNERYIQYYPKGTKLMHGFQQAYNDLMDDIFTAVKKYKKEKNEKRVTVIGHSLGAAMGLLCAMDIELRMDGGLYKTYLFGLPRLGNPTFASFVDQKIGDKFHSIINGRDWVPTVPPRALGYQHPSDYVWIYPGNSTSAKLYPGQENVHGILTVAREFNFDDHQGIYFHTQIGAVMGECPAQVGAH

[2] = target: T2, Secreted mono- and diacylglycerol lipase LIP1 (Malassezia globosa (strain ATCC MYA-4612 / CBS 7966)(Dandruff-associated fungus), UniProt A8PUY1); experiment: Inhibition of Malassezia globosa CBS 7966 LIP1 using pNPA substrate
T2 sequence (A8PUY1 whole entry): T1 sequence (whole entry)

[3] = target: T2, Secreted mono- and diacylglycerol lipase LIP1; experiment: Inhibition of Malassezia globosa CBS 7966 LIP1 using pNPC substrate
[4] = target: T2, Secreted mono- and diacylglycerol lipase LIP1; experiment: Inhibition of Malassezia globosa CBS 7966 LIP1 incubated for 1 hr using monoolein substrate

Row | SMILES | inhibition [1] | IC50 [2] [µM] | IC50 [3] [µM] | IC50 [4] [µM]
1 | O=C(NCCCCCCNC(=O)ON=C1CCCCC1)ON=C1CCCCC1 | Active | 75.2 |  | 
2 | O=C1c2ccccc2C(=O)N1CCSC(=S)N1CCCC1 |  |  | > 200 | 
3 | O=C1c2ccccc2CN1CCSC(=S)N1CCCC1 |  |  | 22.9 | 
4 | O=C1c2ccccc2CN1CCSC(=S)N1CCCCCC1 | Dose-dependent effect | 20.1 | 24.4 | 0.19
5 | O=C1c2ccccc2CN1CCSC(=S)N1CCOCC1 |  |  | > 200 | 
6 | Cc1ccc(C(=O)Oc2ccc3ccc(O)cc3c2)cc1 | Active | 81.8 |  | 
7 | O=C1c2ccccc2C(=O)N1CCSC(=S)N1CCOCC1 |  |  | > 200 | 
8 | O=C(O)c1ccc(=S)n(CC(=O)c2ccccc2)c1 | Active | 98.3 |  | 
9 | O=C1c2ccccc2C(=O)N1CCSC(=S)N1CCCCCC1 |  |  | 63.6 | 
